Reference: the supplement of paper PMC10307832

Key:
Experiment in all cases: relative viability (nuclei count vs DMSO), 5 days (fraction); higher = more cells survive
[1] = test system: LCLC-97TM1
Method in brief: (§1)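 Relative viability is defined as nuclei in treated wells over nuclei in vehicle wells. Duplicate plates were run and medians reported. Lung cancer cell lines in 1536-well plates were dosed by pin tool one day after seeding, with one drug or with a fixed anchor-drug dose plus five library-drug doses (not always all listed) in √10 steps, and nuclei were counted after 5 days.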

[2] = test system: NCI-H1355
Method in brief: as §1

[3] = test system: NCI-H1648
Method in brief: as §1

[4] = test system: NCI-H1993
Method in brief: as §1

[5] = test system: NCI-H23
Method in brief: as §1

[6] = test system: NCI-H322M
Method in brief: as §1

[7] = test system: NCI-H596
Method in brief: as §1

[8] = test system: UMC-11
Method in brief: as §1

[9] = test system: A549
Method in brief: as §1

## COc1nc(C)cnc1NS(=O)(=O)c1cccnc1-c1ccc(-c2nnco2)cc1 [Zibotentan] + CC(=O)Nc1cccc(-n2c(=O)n(C3CC3)c(=O)c3c(Nc4ccc(I)cc4F)n(C)c(=O)c(C)c32)c1 [Trametinib] (partner 0.02 µM)
[1]; first compound 0.08 µM
  relative viability: 0.217
[1]; first compound 0.253 µM
  relative viability: 0.213
[1]; first compound 0.8 µM
  relative viability: 0.198
[1]; first compound 2.53 µM
  relative viability: 0.2
[2]; first compound 0.08 µM
  relative viability: 0.399
[2]; first compound 0.253 µM
  relative viability: 0.437
[2]; first compound 0.8 µM
  relative viability: 0.402
[2]; first compound 2.53 µM
  relative viability: 0.438
[3]; first compound 0.08 µM
  relative viability: 0.49
[3]; first compound 0.253 µM
  relative viability: 0.529
[3]; first compound 0.8 µM
  relative viability: 0.442
[3]; first compound 2.53 µM
  relative viability: 0.604
[4]; first compound 0.08 µM
  relative viability: 0.591
[4]; first compound 0.253 µM
  relative viability: 0.51
[4]; first compound 0.8 µM
  relative viability: 0.459
[4]; first compound 2.53 µM
  relative viability: 0.545
[5]; first compound 0.08 µM
  relative viability: 0.403
[5]; first compound 0.253 µM
  relative viability: 0.305
[5]; first compound 0.8 µM
  relative viability: 0.349
[5]; first compound 2.53 µM
  relative viability: 0.48
[6]; first compound 0.08 µM
  relative viability: 0.501
[6]; first compound 0.253 µM
  relative viability: 0.5
[6]; first compound 0.8 µM
  relative viability: 0.519
[6]; first compound 2.53 µM
  relative viability: 0.561
[7]; first compound 0.08 µM
  relative viability: 0.801
[7]; first compound 0.253 µM
  relative viability: 0.8
[7]; first compound 0.8 µM
  relative viability: 0.791
[7]; first compound 2.53 µM
  relative viability: 0.714
[8]; first compound 0.08 µM
  relative viability: 0.617
[8]; first compound 0.253 µM
  relative viability: 0.665
[8]; first compound 0.8 µM
  relative viability: 0.741
[8]; first compound 2.53 µM
  relative viability: 0.779

## CCN(CC)CCCCNc1ncc2cc(-c3cc(OC)cc(OC)c3)c(NC(=O)NC(C)(C)C)nc2n1 + Nc1ncn([C@H]2C[C@H](O)[C@@H](CO)O2)c(=O)n1 [Decitabine] (partner 2 µM)
[9]; first compound 0.01 µM
  relative viability: 0.27
[9]; first compound 0.03162 µM
  relative viability: 0.27
[9]; first compound 0.1 µM
  relative viability: 0.312
[9]; first compound 0.3162 µM
  relative viability: 0.212
[9]; first compound 1 µM
  relative viability: 0.288
[1]; first compound 0.01 µM
  relative viability: 0.269
[1]; first compound 0.03162 µM
  relative viability: 0.251
[1]; first compound 0.1 µM
  relative viability: 0.321
[1]; first compound 0.3162 µM
  relative viability: 0.272
[1]; first compound 1 µM
  relative viability: 0.255
[2]; first compound 0.01 µM
  relative viability: 0.364
[2]; first compound 0.03162 µM
  relative viability: 0.368
[2]; first compound 0.1 µM
  relative viability: 0.36
[2]; first compound 0.3162 µM
  relative viability: 0.396
[2]; first compound 1 µM
  relative viability: 0.339
[3]; first compound 0.01 µM
  relative viability: 0.407
[3]; first compound 0.03162 µM
  relative viability: 0.565
[3]; first compound 0.1 µM
  relative viability: 0.499
[3]; first compound 0.3162 µM
  relative viability: 0.417
[3]; first compound 1 µM
  relative viability: 0.383
[4]; first compound 0.01 µM
  relative viability: 0.671
[4]; first compound 0.03162 µM
  relative viability: 0.584
[4]; first compound 0.1 µM
  relative viability: 0.508
[4]; first compound 0.3162 µM
  relative viability: 0.757
[4]; first compound 1 µM
  relative viability: 0.589
[5]; first compound 0.01 µM
  relative viability: 0.297
[5]; first compound 0.03162 µM
  relative viability: 0.307
[5]; first compound 0.1 µM
  relative viability: 0.292
[5]; first compound 0.3162 µM
  relative viability: 0.355
[5]; first compound 1 µM
  relative viability: 0.326
[6]; first compound 0.01 µM
  relative viability: 0.691
[6]; first compound 0.03162 µM
  relative viability: 0.767
[6]; first compound 0.1 µM
  relative viability: 0.687
[6]; first compound 0.3162 µM
  relative viability: 0.696
[6]; first compound 1 µM
  relative viability: 0.663
[7]; first compound 0.03162 µM
  relative viability: 1.15
[7]; first compound 0.1 µM
  relative viability: 1.03
[7]; first compound 0.3162 µM
  relative viability: 1.01
[7]; first compound 1 µM
  relative viability: 0.893
[8]; first compound 0.01 µM
  relative viability: 0.724
[8]; first compound 0.03162 µM
  relative viability: 0.615
[8]; first compound 0.1 µM
  relative viability: 0.661
[8]; first compound 0.3162 µM
  relative viability: 0.592
[8]; first compound 1 µM
  relative viability: 0.592
